The values that follow come from publication PMC6409773 (Marine Drugs, 2019).

Assay [1] has as its target T1, 5-HT1A (h) Serotonin (Homo sapiens, UniProt P08908).
T1 sequence (P08908 1-422): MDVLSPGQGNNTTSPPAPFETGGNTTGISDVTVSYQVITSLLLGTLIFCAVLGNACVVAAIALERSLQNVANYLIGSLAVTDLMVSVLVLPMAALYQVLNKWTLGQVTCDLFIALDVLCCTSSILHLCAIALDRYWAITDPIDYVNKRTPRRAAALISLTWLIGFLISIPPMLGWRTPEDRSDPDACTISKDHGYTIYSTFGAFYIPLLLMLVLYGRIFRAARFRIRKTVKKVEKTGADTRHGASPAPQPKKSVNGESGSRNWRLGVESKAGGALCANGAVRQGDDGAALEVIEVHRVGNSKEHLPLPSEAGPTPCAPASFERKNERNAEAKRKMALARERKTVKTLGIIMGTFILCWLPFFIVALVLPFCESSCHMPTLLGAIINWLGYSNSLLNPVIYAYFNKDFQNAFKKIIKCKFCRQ
As to the kind of experiment: Cell-based functional GPCR assay, antagonist effect. The note with it: read-out: % Inhibition of Control Agonist Response. How it is done: (§1) A functional GPCR cell-based assay presents readouts of multiple second messengers including cAMP for Gi and Gs-coupled receptors and IP1 and IP3/calcium flux for Gq-coupled receptors. Functional assays were conducted at Eurofins Cerep (Le Bois I’Eveque, France) using transected cells expressing human cloned receptors. The in-house functional assay protocol (https://www.eurofinsdiscoveryservices.com/cms/cms-content/services/in-vitro-assays/gpcrs/functional/) and experimental conditions are shown in Supplementary Table S1. Stable cell lines expressing recombinant GPCRs were used in this study.
(§2) The method used to quantify the intracellular [Ca^2+] level varied slightly according to receptor type. However, in general, cells expressing different receptors (Table 1) were transfected with an expression vector encoding a receptor polypeptide and were allowed to grow for a time period sufficient for that receptor to be expressed. A fluorescent probe (Fluo8 Direct, Invitrogen, Carlsbad, CA, USA) mixed with probencid in HBSS buffer (Invitrogen, Carlsbad, CA, USA) supplemented with […] (Invitrogen) (pH 7.4) was then added to each well and allowed to equilibrate with the cells for 60 min at 37 °C. Thereafter, assay plates were positioned in a microplate reader (CellLux, PerkinElmer, Waltham, MA, USA) and eckol (25 and 50 μM), reference agonist, or HBSS buffer (basal control) were added, and measurements of the change in fluorescence intensity, which varies proportionally to the free cytosolic Ca^2+ ion concentration, were taken. Standard reference control (agonist and antagonist) values are presented in Table 1, and controls were included in each experiment at several concentrations to generate a concentration-response curve from which to calculate EC50 values.
(§3) Cellular agonist effect was calculated as the percentage of the control response to a known reference agonist for each target and the cellular antagonist effect was calculated as the percentage inhibition of the control reference agonist response for each target. Results are expressed as a percentage of control agonist response or inverse agonist response (measured response/control response × 100) and as percent inhibition of control agonist response [100 − (measured response/control response × 100)] obtained in the presence of the eckol.

Assay [2] addresses T2, NK1 (h) Tachykinin (Homo sapiens, UniProt P25103). The assay is described as above. The note with it: read-out: % Inhibition of Control Agonist Response. How it is done:
as §1, §2, §3

Assay [3] has as its target T3, V1A (h) Vasopressin/Oxytocin (Homo sapiens, UniProt P37288). The description is as above. The note with it: read-out: % Inhibition of Control Agonist Response. As to the method: as §1, §2, §3
In assay [4] the target is T4, M5 (h) Acetylcholine (muscarinic) (Homo sapiens, UniProt P08912).
T4 sequence (P08912 1-532): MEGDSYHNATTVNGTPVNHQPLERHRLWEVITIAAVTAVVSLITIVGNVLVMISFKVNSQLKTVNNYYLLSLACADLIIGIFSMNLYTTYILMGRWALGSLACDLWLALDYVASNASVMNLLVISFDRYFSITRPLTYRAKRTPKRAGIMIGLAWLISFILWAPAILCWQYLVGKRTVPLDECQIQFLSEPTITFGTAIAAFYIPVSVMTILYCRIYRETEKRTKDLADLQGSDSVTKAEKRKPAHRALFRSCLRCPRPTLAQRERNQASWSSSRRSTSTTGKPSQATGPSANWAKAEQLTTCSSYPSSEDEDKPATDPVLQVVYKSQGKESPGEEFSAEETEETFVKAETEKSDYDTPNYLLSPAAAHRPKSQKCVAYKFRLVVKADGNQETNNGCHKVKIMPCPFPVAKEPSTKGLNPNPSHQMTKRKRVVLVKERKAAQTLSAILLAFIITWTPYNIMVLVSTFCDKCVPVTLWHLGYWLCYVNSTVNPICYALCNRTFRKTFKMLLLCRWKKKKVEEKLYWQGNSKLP
Described as above. The note with it: read-out: % Inhibition of Control Agonist Response. As to the method: as §1, §2, §3

Assay [5] addresses T5, D1 (h) Dopamine (Homo sapiens, UniProt P21728). As to the kind of experiment: Cell-based functional GPCR assay, agonist effect (cAMP). The note with it: read-out: % of Control Agonist Response. How it is done: as §1
(§4) . Following incubation, cells were lysed and a fluorescence acceptor (D2-labeled cAMP) and fluorescence donor (anti-cAMP antibody with europium cryptate) were added. After 60 min at room temperature, fluorescence transfer was measured at λex = 337 nm and λem = 620 and 665 nm using a microplate reader (Envison, Perkin Elmer, Waltham, MA, USA). Cyclic AMP concentration was determined by dividing the signal measured at 665 nm by that measured at 620 nm (ratio). […].
as §3

Assay [6] addresses T6, D4 (h) Dopamine (Homo sapiens, UniProt P21917).
T6 sequence (P21917 1-419): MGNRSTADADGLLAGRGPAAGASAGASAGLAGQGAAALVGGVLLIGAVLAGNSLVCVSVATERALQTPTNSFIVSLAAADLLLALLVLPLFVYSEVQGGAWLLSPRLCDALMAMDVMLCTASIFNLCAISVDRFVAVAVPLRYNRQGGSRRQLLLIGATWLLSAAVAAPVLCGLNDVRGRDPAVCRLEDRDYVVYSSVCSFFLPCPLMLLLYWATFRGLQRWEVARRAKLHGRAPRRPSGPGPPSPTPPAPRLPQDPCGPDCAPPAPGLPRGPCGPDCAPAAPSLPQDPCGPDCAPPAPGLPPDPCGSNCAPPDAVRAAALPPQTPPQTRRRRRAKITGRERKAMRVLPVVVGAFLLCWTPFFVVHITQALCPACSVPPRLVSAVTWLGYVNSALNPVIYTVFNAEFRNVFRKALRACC
Described as above. How it is done: as §1, §4, §3

In assay [7] the target is T7, D3 (h) Dopamine (Homo sapiens, UniProt P35462). The description is as above. As to the method: as §1, §4, §3
The target in assay [8] is T1, 5-HT1A (h) Serotonin. The experiment in a line: Cell-based functional GPCR assay, agonist effect. The note with it: read-out: % of Control Agonist Response. As to the method: as §1, §2, §3
Assay [9] addresses T2, NK1 (h) Tachykinin. As to the kind of experiment: Cell-based functional GPCR assay, agonist effect. The note with it: read-out: % of Control Agonist Response. As to the method: as §1, §2, §3
Assay [10] concerns the target T3, V1A (h) Vasopressin/Oxytocin. As to the kind of experiment: Cell-based functional GPCR assay, agonist effect. The note with it: read-out: % of Control Agonist Response. As to the method:
as §1, §2, §3

Assay [11] concerns the target T4, M5 (h) Acetylcholine (muscarinic). As to the kind of experiment: Cell-based functional GPCR assay, agonist effect. The note with it: read-out: % of Control Agonist Response. As to the method:
as §1, §2, §3

Assay [12] deals with T5, D1 (h) Dopamine. The experiment in a line: Cell-based functional GPCR assay, antagonist effect (cAMP). The note with it: read-out: % Inhibition of Control Agonist Response. As to the method:
as §1, §4, §3

In assay [13] the target is T6, D4 (h) Dopamine. The description is as above. The note with it: read-out: % Inhibition of Control Agonist Response. As to the method:
as §1, §4, §3

Assay [14] has as its target T7, D3 (h) Dopamine. The description is as above. The note with it: read-out: % Inhibition of Control Agonist Response. As to the method:
as §1, §4, §3

For assay [15], the target named is T2, NK1 (h) Tachykinin. Set-up: method as in Eurofins Panlab. The note with it: as reported by Eurofins Panlab, ref Eurofins Panlab, read-out: Reference Antagonists of Respective Target Receptors IC50; cited from earlier work.
Setting [16] is: 25 μM, read-out: % of Control Agonist Response.
Where [17] appears, read: 50 μM, read-out: % of Control Agonist Response.
Setting [18] is: read-out: EC50 (concentration producing a half-maximal agonist response).

T7 sequence (P35462 whole entry): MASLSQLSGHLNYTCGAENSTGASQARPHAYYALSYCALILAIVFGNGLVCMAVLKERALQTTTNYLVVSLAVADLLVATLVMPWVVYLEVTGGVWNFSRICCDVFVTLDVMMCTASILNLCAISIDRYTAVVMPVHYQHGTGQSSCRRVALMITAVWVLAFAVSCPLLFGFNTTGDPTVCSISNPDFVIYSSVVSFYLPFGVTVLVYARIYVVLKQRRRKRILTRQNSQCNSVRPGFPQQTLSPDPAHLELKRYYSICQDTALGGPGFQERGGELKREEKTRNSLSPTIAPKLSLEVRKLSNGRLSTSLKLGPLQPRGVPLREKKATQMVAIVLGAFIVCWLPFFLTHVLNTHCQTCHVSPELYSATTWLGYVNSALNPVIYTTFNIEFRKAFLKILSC
T5 sequence (P21728 whole entry): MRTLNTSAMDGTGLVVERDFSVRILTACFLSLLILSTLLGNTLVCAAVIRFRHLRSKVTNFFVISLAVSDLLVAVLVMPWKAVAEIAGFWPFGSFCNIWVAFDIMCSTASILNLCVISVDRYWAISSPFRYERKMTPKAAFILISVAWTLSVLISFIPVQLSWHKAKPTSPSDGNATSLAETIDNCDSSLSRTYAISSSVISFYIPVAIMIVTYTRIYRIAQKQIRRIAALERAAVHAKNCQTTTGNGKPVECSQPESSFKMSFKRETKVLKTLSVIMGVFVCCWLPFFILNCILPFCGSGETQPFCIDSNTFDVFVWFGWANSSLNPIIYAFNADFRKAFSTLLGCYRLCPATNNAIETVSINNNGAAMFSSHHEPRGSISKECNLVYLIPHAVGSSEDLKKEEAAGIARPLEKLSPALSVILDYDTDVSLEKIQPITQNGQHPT
T3 sequence (P37288 whole entry): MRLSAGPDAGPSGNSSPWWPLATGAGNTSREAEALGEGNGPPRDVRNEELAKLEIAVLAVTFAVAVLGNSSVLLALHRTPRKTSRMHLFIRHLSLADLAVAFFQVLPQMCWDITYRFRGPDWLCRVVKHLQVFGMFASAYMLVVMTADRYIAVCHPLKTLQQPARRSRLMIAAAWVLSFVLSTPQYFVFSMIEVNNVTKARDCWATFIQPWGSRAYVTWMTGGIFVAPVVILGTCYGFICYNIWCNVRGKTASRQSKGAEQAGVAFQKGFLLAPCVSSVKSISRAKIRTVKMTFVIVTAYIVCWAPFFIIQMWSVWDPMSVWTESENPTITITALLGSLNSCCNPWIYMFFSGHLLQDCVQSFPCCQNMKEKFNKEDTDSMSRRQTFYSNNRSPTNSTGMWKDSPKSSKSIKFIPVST
T2 sequence (P25103 whole entry): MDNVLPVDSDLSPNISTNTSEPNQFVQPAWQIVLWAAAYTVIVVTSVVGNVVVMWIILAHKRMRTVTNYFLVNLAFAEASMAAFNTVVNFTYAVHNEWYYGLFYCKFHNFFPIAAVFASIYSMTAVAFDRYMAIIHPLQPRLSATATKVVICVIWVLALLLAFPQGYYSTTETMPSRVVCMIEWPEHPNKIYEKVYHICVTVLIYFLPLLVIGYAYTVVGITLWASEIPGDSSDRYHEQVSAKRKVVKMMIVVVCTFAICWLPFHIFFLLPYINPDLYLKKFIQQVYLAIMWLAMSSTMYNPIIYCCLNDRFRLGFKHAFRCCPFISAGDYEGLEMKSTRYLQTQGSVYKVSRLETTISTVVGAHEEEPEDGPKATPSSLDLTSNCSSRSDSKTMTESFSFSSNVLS

Regarding `Oc1cc(O)cc(Oc2c(O)cc(O)c3c2Oc2c(O)cc(O)cc2O3)c1` [Eckol, eckol], the inhibition at 25 µM in [1] (25 μM) is 6.17 ± 10.3%; in assay [2] (25 μM), -11.3 ± 6.37%; in [3] (25 μM) it was -13.5 ± 6.93%; in [4] (25 μM), 1 ± 0.4%; in assay [12] (25 μM) it was 11.6 ± 2.15%; in assay [13] (25 μM), 1.33 ± 1.7%. For the same compound, in assay [14] (25 μM), the inhibition at 25 µM was -9 ± 6.98%. For the same compound, the inhibition at 50 µM in [1] (50 μM) was 3.49 ± 4.33%; in assay [2] (50 μM), -4.32 ± 3.33%; in [3] (50 μM), -4.26 ± 11.1%; in [4] (50 μM), -4.8 ± 2.25%; in assay [12] (50 μM), 1.89 ± 1.62%; in assay [13] (50 μM), -3.33 ± 4.7%. Besides, the inhibition at 50 µM in [14] (50 μM) is -15.1 ± 2.51%. The activity at 25 µM in assay [5] (25 μM) was -0.58 ± 2.46%; in assay [6] (setting [16]), 36.5 ± 10.9%; in assay [7] (setting [16]), 10.6 ± 4.16%; in assay [8] (25 μM), -1.78 ± 0.45%; in [9] (25 μM), -2.32 ± 0.26%; in assay [10] (25 μM), -8.91 ± 3.2%. For the same compound, in [11] (25 μM), the activity at 25 µM worked out at 0.38 ± 0.1%. Further, the activity at 50 µM in assay [5] (50 μM) was -2.77 ± 1.27%; in assay [6] (setting [17]), 54.7 ± 7.05%; in assay [7] (setting [17]), 53.1 ± 6.67%; in assay [8] (50 μM), -3.04 ± 1.23%; in [9] (50 μM) it was -2.99 ± 0.21%; in assay [10] (50 μM), -12.5 ± 0.51%. Further, the activity at 50 µM in [11] (50 μM) amounted to 0.39 ± 0.46%. Besides, the EC50 amounted to 42.6 ± 2.54 µM in [6] (setting [18]) and 48.6 ± 3.21 µM in [7] (setting [18]).

Consider `FC(F)(F)c1cc(CO[C@H]2CCCN[C@H]2c2ccccc2)cc(C(F)(F)F)c1` [L 733,060], for which, in assay [15], the IC50 is 0.00021 µM.

A word on the inhibition: it is the drop in the measured response relative to a control, in per cent. As a reminder, the IC50 is the concentration that inhibits the measured activity by half.
